According to patent US20070082872A1, “Indole-containing compounds with anti-tubulin and vascular targeting activity” (priority 1999, published 2007):

Legend:
SF-295 (CNS) = assay: In vitro growth inhibition (SRB), SF-295; type: cell-based, human; conditions: 48 hours incubation
Protocol: (§1) Newly prepared compounds were evaluated for cytotoxic activity against a variety of cell lines derived from human tumors using an assay system similar to the National Cancer Institute procedure previously described (Monks et al, J. Natl. Cancer Inst., 1991). Briefly, the cell suspensions, diluted according to the particular cell type and the expected target cell density (5,000-40,000 cells per well based on cell growth characteristics), were added by pipet (100 μl) to 96-well microtiter plates. Inoculates were allowed a preincubation time of 24-28 hours at 37° C. for stabilization. Incubation with the inhibitor compounds lasted for 48 hours in 5% CO2 atmosphere and 100% humidity. Determination of cell growth was performed by in situ fixation of cells, followed by staining with a protein-binding dye sulforhodamine B (SRB), which binds to the basic amino acids of cellular macromolecules. The solubilized stain was measured spectrophotometrically.
(§2) Several compounds were evaluated for cytotoxic activity against […] P388 leukemia cell lines. […] These and additional compounds were evaluated in terms of growth inhibitory activity against several other […] cancer cell lines including: central nervous system (“CNS”, SF-295), pancreas (BXPC-3), non-small cell lung cancer (“lung-NSC”, NCI-H460), breast (MCF-7), colon (KM20L2), ovarian (OVCAR-3), and prostate (DU-145). […]

BXPC-3 (pancreas) = assay: In vitro growth inhibition (SRB), BXPC-3; type: cell-based, human; conditions: 48 hours incubation
Protocol: as §1, §2

NCI-H460 (lung-NSC) = assay: In vitro growth inhibition (SRB), NCI-H460; type: cell-based, human; conditions: 48 hours incubation
Protocol: as §1, §2

MCF-7 (breast) = assay: In vitro growth inhibition (SRB), MCF-7; type: cell-based, human; conditions: 48 hours incubation
Protocol: as §1, §2

KM20L2 (colon) = assay: In vitro growth inhibition (SRB), KM20L2; type: cell-based, human; conditions: 48 hours incubation
Protocol: as §1, §2

DU-145 (prostate) = assay: In vitro growth inhibition (SRB), DU-145; type: cell-based, human; conditions: 48 hours incubation
Protocol: as §1, §2

[1] = system: MHEC-5T hemangioendothelioma tumor; assay: Inhibition of tumor blood flow, Fluorescent Bead Assay; type: in vivo, mice; conditions: for % VAPM (vessel area per tumor tissue area as a percentage of the control): single i.p. injection, 24 hours post-treatment
Protocol: The antivascular effects of the indole phosphate prodrug Oxi-8007, was assessed in tumor-bearing mice using a Fluorescent Bead Assay. A MHEC-5T hemangioendothelioma tumor model was established by subcutaneous injection of 0.5×10^6 cultured transformed cell murine myocardial vascular endothelial cell line (“MHEC5-T”) cells into the right flank of Fox Chase CB-17 Severe Combined Immunodeficient (“SCID”) mice. When transplanted tumors reached a size of 500 mm^3 (a size without development of necrosis), the mice received a single intraperitoneal (i.p.) injection of saline control or compound at doses ranging from 3.2 to 25 mg/kg. At 24 hours post-treatment, mice were injected intravenously with 0.25 ml of diluted FluoSphere beads (1:6 in physiological saline) in the tail vein, sacrificed after 3 minutes, and tumor was excised for cryosectioning. Tumor cryosections at a thickness of 8 um were directly examined using quantitative fluorescent microscopy. Blood vessels were indicated by blue fluorescence from injected beads. For quantification, image analysis of 3 sections from three tumors treated in each group were examined and vascular shutdown was expressed as vessel area (mm^2) per tumor tissue area (mm^2) as a percentage of the control (“%VAPM”). The results as shown in Table 4 indicate a clear dose-dependent effect of the agent on tumor blood flow as indicated by the reduction in blood vessel area at 24 hours following administration of Oxi8007. Administration of a dose of 100 mg/kg of Oxi-8007 or higher was particularly effective, causing a >98% reduction in tumor vessel volume relative to the control. A time-course of the effect of OX08007 on tumor blood flow is illustrated in FIG. 14.
Additional compounds of the present invention were tested for antivascular effects at two dosages (100 mg/kg and 10 mg/kg) using the same Fluorescent Bead Assay as in the previous experiment.

MDA-MB-231 cells = assay: Tumor growth control in vivo, MDA-MB-231 human breast adenocarcinoma model; conditions: SCID mice, 25, 50 or 100 mg/kg daily i.p. for 5 consecutive days; effective dose printed as X mg/kg
Protocol: The antitumor activity of indole phosphate prodrug, Oxi-8007, was assessed in tumor-bearing mice by measuring its effects on tumor volume. A human breast adenocarcinoma model was established by subcutaneous injection of cultured MDA-MB-231 cells in Fox Chase CB-17 SCID mice. When the average tumor size reached 50-100 mm^3, mice were randomly divided into several groups (n=10) with no significant difference in body weight and tumor size. Mice were administered Oxi-8007 in saline carrier at doses of 25, 50 or 100 mg/kg by daily intraperitoneal (i.p.) injection for 5 consecutive days (Q1×5). Saline carrier only was used as the control treatment. On Day 3, 7, 10, 13, 17 and 23, tumors were excised from animals in each treatment group (n=2) and measured by width and length. Tumor volume was calculated according to the following formula: Length×Width^2×0.4. The dosage effects of Oxi-com 197 is illustrated in FIG. 15.

COc1ccc2c(C(=O)c3cc(OC)c(OC)c(OC)c3)c(-c3ccc(OC)c(OP(=O)([O-])[O-])c3)[nH]c2c1.[Na+].[Na+] [Oxi-8007, 2-(3′-Disodiumphosphate-4′-methoxyphenyl)-3-(3″,4″,5″-trimethoxybenzoyl)-6-methoxyindole]
GI50 for Cell Line SF-295 (SF-295 (CNS)): 5.5 ng/mL
GI50 for Cell Line BXPC-3 (BXPC-3 (pancreas)): 46 ng/mL
GI50 for Cell Line NCI-H460 (NCI-H460 (lung-NSC)): 2.7 ng/mL
GI50 for Cell Line MCF-7 (MCF-7 (breast)): 2.3 ng/mL
GI50 for Cell Line KM20L2 (KM20L2 (colon)): 4.3 ng/mL
GI50 for Cell Line DU-145 (DU-145 (prostate)): <1 ng/mL
% VAPM (vessel area per tumor tissue area as a percentage of the control) ([1]; 50 mg/kg): 52%
% VAPM (vessel area per tumor tissue area as a percentage of the control) ([1]; 100 mg/kg): 2%
% VAPM (vessel area per tumor tissue area as a percentage of the control) ([1]; 200 mg/kg): 1%
reduction in tumor vessel volume relative to the control ([1]; dose of 100 mg/kg or higher, 24 hours): > 98%
tumor growth (tumor volume) relative to control treatment (MDA-MB-231 cells): significantly inhibited tumor growth
